Measurements: publication PMC8413292, “Small-molecule polymerase inhibitor protects non-human primates from measles and reduces shedding” (Nature Communications, 2021)
“And” between values parts separate entries of the source, which are not always exact repeats. Identical values can stand only once.

Tests used:
[1] = system: MV/FrankfurtMain.DEU/17.11 (genotype D8); test: White blood cell counts from whole blood; assay type: in vivo, squirrel monkeys (Saimiri sciureus); details: for Counted Cells (Total), white blood cells / Cells [10^3/mm^3], white blood cells / Cells/ml, white blood cells: individual animals
Method: (§1) White blood cell counts, viral load quantification in PBMCs, and quantification of neutralizing antibody titers were performed as follows: for white blood cell counts, blood was diluted 1:100 in 3% acetic acid and cells were counted using a Neubauer chamber. For viral load quantification in PBMCs, blood was centrifuged at 3000 rpm for 15 min and serum was frozen at −20 °C until further use. Red blood cell lysis was performed and the remaining PBMCs were counted using a Neubauer chamber. Viral titers in PBMCs were quantified in quadruplicates using limited dilution method and calculated as TCID50/10^6 PBMCs. Neutralizing antibody titers were quantified by incubating MeV with 2-fold serial dilutions of the respective serum for 20 min at room temperature in quadruplicates. Vero/hSLAM cells were added and incubated for 3 days at 37 °C. Neutralizing antibody titers are expressed as the reciprocal of the highest serum dilution showing no signs of infection. For virus titration from throat swabs, swabs were placed in 150 μl DMEM with 3% penicillin/streptomycin and the titer was quantified by limited dilution method.

[2] = system: MV/FrankfurtMain.DEU/17.11 (genotype D8); test: Throat swab virus titers (shed virus, limited dilution); assay type: in vivo, squirrel monkeys (Saimiri sciureus)
Method: as §1

[3] = Necropsy and histology (H&E) for pharmacotoxicity; assay type: in vivo
Text: After euthanasia, each animal was examined for gross pathological changes, and samples were collected for histopathological examination. After fixation, all tissue samples were embedded in paraffin. Histology slices were mounted and stained using standard H&E staining techniques.

Cn1nc(C(F)(F)F)cc1C(=O)Nc1ccc(S(=O)(=O)N2CCCC[C@H]2CCN2CCOCC2)cc1 [ERDRP-0519]
Counted Cells (Total), white blood cells ([1]; therapeutic (d3) group, 21 dpi): 18 and 14 and 41 and 30 and 9
WBC group mean (Mean 2) ([1]; therapeutic (d3) group, Row 1 (0 dpi)): 5.5 10^3cells/mm^3
WBC group mean (Mean 2) ([1]; therapeutic (d3) group, Row 2 (3 dpi)): 6.875 10^3cells/mm^3
WBC group mean (Mean 2) ([1]; therapeutic (d3) group, Row 3 (7 dpi)): 4.917 10^3cells/mm^3
WBC group mean (Mean 2) ([1]; therapeutic (d3) group, Row 4 (10 dpi)): 3.333 10^3cells/mm^3
WBC group mean (Mean 2) ([1]; therapeutic (d3) group, Row 5 (14 dpi)): 7.642 10^3cells/mm^3
WBC group mean (Mean 2) ([1]; therapeutic (d3) group, Row 6 (17 dpi)): 4.45 10^3cells/mm^3
WBC group mean (Mean 2) ([1]; therapeutic (d3) group, Row 7 (21 dpi)): 5.61 10^3cells/mm^3
Cells [10^3/mm^3], white blood cells ([1]; therapeutic (d7) group, 0 dpi): 2.75 10^3/mm^3 and 3 10^3/mm^3 (2×) and 7.25 10^3/mm^3 and 5.25 10^3/mm^3
Cells/ml, white blood cells ([1]; therapeutic (d7) group, 0 dpi): 3.00E+06 Cells/ml (2×) and 7.25E+06 Cells/ml and 5.25E+06 Cells/ml and 2.75E+06 Cells/ml
Counted Cells (Total), white blood cells ([1]; therapeutic (d7) group, 0 dpi): 11 and 12 (2×) and 29 and 21
Cells [10^3/mm^3], white blood cells ([1]; therapeutic (d7) group, 3 dpi): 7.5 10^3/mm^3 and 12.5 10^3/mm^3 and 6.5 10^3/mm^3 and 7.75 10^3/mm^3 (2×) and 8.75 10^3/mm^3
Cells/ml, white blood cells ([1]; therapeutic (d7) group, 3 dpi): 1.25E+07 Cells/ml and 6.50E+06 Cells/ml and 7.75E+06 Cells/ml (2×) and 8.75E+06 Cells/ml and 7.50E+06 Cells/ml
Counted Cells (Total), white blood cells ([1]; therapeutic (d7) group, 3 dpi): 30 and 50 and 26 and 31 (2×) and 35
Cells [10^3/mm^3], white blood cells ([1]; therapeutic (d7) group, 7 dpi): 4 10^3/mm^3 (3×) and 5 10^3/mm^3 and 3 10^3/mm^3 and 3.25 10^3/mm^3
Cells/ml, white blood cells ([1]; therapeutic (d7) group, 7 dpi): 4.00E+06 Cells/ml (3×) and 5.00E+06 Cells/ml and 3.00E+06 Cells/ml and 3.25E+06 Cells/ml
Counted Cells (Total), white blood cells ([1]; therapeutic (d7) group, 7 dpi): 16 (3×) and 20 and 12 and 13
Cells [10^3/mm^3], white blood cells ([1]; therapeutic (d7) group, 10 dpi): 3 10^3/mm^3 and 2.75 10^3/mm^3 and 2.5 10^3/mm^3
Cells/ml, white blood cells ([1]; therapeutic (d7) group, 10 dpi): 2.75E+06 Cells/ml and 2.50E+06 Cells/ml and 3.00E+06 Cells/ml
Counted Cells (Total), white blood cells ([1]; therapeutic (d7) group, 10 dpi): 12 and 11 and 10
WBC group mean (Mean 2) ([1]; therapeutic (d7) group, Row 1 (0 dpi)): 4.25 10^3cells/mm^3
WBC group mean (Mean 2) ([1]; therapeutic (d7) group, Row 2 (3 dpi)): 8.458 10^3cells/mm^3
WBC group mean (Mean 2) ([1]; therapeutic (d7) group, Row 3 (7 dpi)): 3.875 10^3cells/mm^3
WBC group mean (Mean 2) ([1]; therapeutic (d7) group, Row 4 (10 dpi)): 2.708 10^3cells/mm^3
WBC group mean (Mean 2) ([1]; therapeutic (d7) group, Row 5 (14 dpi)): 3.125 10^3cells/mm^3
WBC group mean (Mean 2) ([1]; therapeutic (d7) group, Row 6 (17 dpi)): 4.25 10^3cells/mm^3
WBC group mean (Mean 2) ([1]; therapeutic (d7) group, Row 7 (21 dpi)): 5.083 10^3cells/mm^3
drop of shed virus titers (throat swab) compared to untreated animals ([2]; day 7 therapeutic group, within 72 h of treatment initiation): dropped significantly (p = 0.0199) by two orders of magnitude
Swab Titration, group mean (Mean 2) ([2]; prophylactic, Row 1 (0 d)): 0 log10(TCID50/ml)
Swab Titration, group mean (Mean 2) ([2]; prophylactic, Row 2 (3 d)): 0 log10(TCID50/ml)
Swab Titration, group mean (Mean 2) ([2]; prophylactic, Row 3 (7 d)): 0 log10(TCID50/ml)
Swab Titration, group mean (Mean 2) ([2]; prophylactic, Row 4 (10 d)): 0.4498 log10(TCID50/ml)
Swab Titration, group mean (Mean 2) ([2]; prophylactic, Row 5 (14 d)): 0 log10(TCID50/ml)
Swab Titration, group mean (Mean 2) ([2]; prophylactic, Row 6 (17 d)): 0.1165 log10(TCID50/ml)
Viral titers (throat swab), individual animals ([2]; prophylactic, time 10 d): 2.699 log10(TCID50/ml)
Viral titers (throat swab), individual animals ([2]; prophylactic, time 17 d): 0.699 log10(TCID50/ml)
Swab Titration, group mean (Mean 2) ([2]; therapeutic (d3), Row 1 (0 d)): 0 log10(TCID50/ml)
Swab Titration, group mean (Mean 2) ([2]; therapeutic (d3), Row 2 (3 d)): 0 log10(TCID50/ml)
Swab Titration, group mean (Mean 2) ([2]; therapeutic (d3), Row 3 (7 d)): 0.7332 log10(TCID50/ml)
Swab Titration, group mean (Mean 2) ([2]; therapeutic (d3), Row 4 (10 d)): 1.153 log10(TCID50/ml)
Swab Titration, group mean (Mean 2) ([2]; therapeutic (d3), Row 5 (14 d)): 0 log10(TCID50/ml)
Swab Titration, group mean (Mean 2) ([2]; therapeutic (d3), Row 6 (17 d)): 0 log10(TCID50/ml)
Viral titers (throat swab), individual animals ([2]; therapeutic (d3), time 7 d): 0.699 log10(TCID50/ml) and 2 log10(TCID50/ml) and 1.699 log10(TCID50/ml)
Viral titers (throat swab), individual animals ([2]; therapeutic (d3), time 10 d): 1.477 log10(TCID50/ml) (3×) and 2.477 log10(TCID50/ml)
Swab Titration, group mean (Mean 2) ([2]; therapeutic (d7), Row 1 (0 d)): 0 log10(TCID50/ml)
Swab Titration, group mean (Mean 2) ([2]; therapeutic (d7), Row 2 (3 d)): 0 log10(TCID50/ml)
Swab Titration, group mean (Mean 2) ([2]; therapeutic (d7), Row 3 (7 d)): 2.207 log10(TCID50/ml)
Swab Titration, group mean (Mean 2) ([2]; therapeutic (d7), Row 4 (10 d)): 0.9798 log10(TCID50/ml)
Swab Titration, group mean (Mean 2) ([2]; therapeutic (d7), Row 5 (14 d)): 0 log10(TCID50/ml)
Swab Titration, group mean (Mean 2) ([2]; therapeutic (d7), Row 6 (17 d)): 0 log10(TCID50/ml)
Viral titers (throat swab), individual animals ([2]; therapeutic (d7), time 7 d): 3.477 log10(TCID50/ml) and 2.699 log10(TCID50/ml) (2×) and 2.176 log10(TCID50/ml) (2×)
Viral titers (throat swab), individual animals ([2]; therapeutic (d7), time 10 d): 1.699 log10(TCID50/ml) and 1.477 log10(TCID50/ml) and 2.699 log10(TCID50/ml)
Swab Titration, Mean Diff, untreated vs. treated ([2]; untreated vs. prophylactic, Row 1 (0 d)): 0 log10(TCID50/ml)
Swab Titration, Mean Diff, untreated vs. treated ([2]; untreated vs. prophylactic, Row 2 (3 d)): 0 log10(TCID50/ml)
Swab Titration, Mean Diff, untreated vs. treated ([2]; untreated vs. prophylactic, Row 3 (7 d)): 1.98 log10(TCID50/ml)
Swab Titration, Mean Diff, untreated vs. treated ([2]; untreated vs. prophylactic, Row 4 (10 d)): 2.423 log10(TCID50/ml)
Swab Titration, Mean Diff, untreated vs. treated ([2]; untreated vs. prophylactic, Row 5 (14 d)): 0 log10(TCID50/ml)
Swab Titration, Mean Diff, untreated vs. treated ([2]; untreated vs. prophylactic, Row 6 (17 d)): 0.1302 log10(TCID50/ml)
Swab Titration, Mean Diff, untreated vs. treated ([2]; untreated vs. therapeutic (d3), Row 1 (0 d)): 0 log10(TCID50/ml)
Swab Titration, Mean Diff, untreated vs. treated ([2]; untreated vs. therapeutic (d3), Row 2 (3 d)): 0 log10(TCID50/ml)
Swab Titration, Mean Diff, untreated vs. treated ([2]; untreated vs. therapeutic (d3), Row 3 (7 d)): 1.247 log10(TCID50/ml)
Swab Titration, Mean Diff, untreated vs. treated ([2]; untreated vs. therapeutic (d3), Row 4 (10 d)): 1.72 log10(TCID50/ml)
Swab Titration, Mean Diff, untreated vs. treated ([2]; untreated vs. therapeutic (d3), Row 5 (14 d)): 0 log10(TCID50/ml)
Swab Titration, Mean Diff, untreated vs. treated ([2]; untreated vs. therapeutic (d3), Row 6 (17 d)): 0.2467 log10(TCID50/ml)
Swab Titration, Mean Diff, untreated vs. treated ([2]; untreated vs. therapeutic (d7), Row 1 (0 d)): 0 log10(TCID50/ml)
Swab Titration, Mean Diff, untreated vs. treated ([2]; untreated vs. therapeutic (d7), Row 2 (3 d)): 0 log10(TCID50/ml)
Swab Titration, Mean Diff, untreated vs. treated ([2]; untreated vs. therapeutic (d7), Row 3 (7 d)): -0.2268 log10(TCID50/ml)
Swab Titration, Mean Diff, untreated vs. treated ([2]; untreated vs. therapeutic (d7), Row 4 (10 d)): 1.893 log10(TCID50/ml)
Swab Titration, Mean Diff, untreated vs. treated ([2]; untreated vs. therapeutic (d7), Row 5 (14 d)): 0 log10(TCID50/ml)
Swab Titration, Mean Diff, untreated vs. treated ([2]; untreated vs. therapeutic (d7), Row 6 (17 d)): 0.2467 log10(TCID50/ml)
histological signs of pharmacotoxicity ([3]; all monkeys, day 21, 50 mg/kg b.i.d. 14 days): No histological signs of pharmacotoxicity were detected
liver histology of the deceased animal versus untreated control ([3]; day 3 therapeutic group animal deceased day 15): no pathological alternations
